pEC50: −log10 of the molar value.
Target: T1, ΔF508-CFTR (Homo sapiens, UniProt P13569, DEL508-508)
T1 construct: host or cells: CFBE41o-, doxycycline-inducible
Assay: CFTR cell surface levels using HRP-tagged ΔF508-CFTR expressing CFBE cells, intrinsic corrector capacity
Format: cell-based
Conditions: HRP-tagged ΔF508-CFTR CFBE41o- cells, compounds alone (intrinsic corrector capacity), 20 hours at 33° C.; for % Activation: positive control 3 μM corrector; for pEC50: read-out: EC50
Description: Measuring CFTR Cell Surface Levels Using HRP-Tagged AF508-CFTR Expressing CFBE Cells
The HRP-tagged AF508-CFTR cell assay measures the expression of CFTR-ΔF508 at the plasma membrane. CFTR-ΔF508 has a folding defect leading to absence of protein at the plasma membrane. This assay is used to evaluate the capacity of compounds to increase the expression of CFTR-ΔF508 at the plasma membrane. The CFTR-ΔF508 is tagged with HRP (horse radish peroxidase enzyme) within the ECL4 (Extracellular loop 4) of CFTR (Phuan, P.-W. et al. Synergy-based small-molecule screen using a human lung epithelial cell line yields AF508-CFTR correctors that augment VX-809 maximal efficacy. Mol. Pharmacol. 86, 42-51 (2014)). When HRP-tagged AF508-CFTR is present at the plasma membrane, the HRP enzyme activity can be measured. The amount of CFTR-ΔF508 that can be rescued to the plasma membrane is correlated with the amount of functional enzyme that can be measured.
There are several ways to measure the capacity of compounds to rescue CFTR-ΔF508 to the plasma membrane; either compounds are evaluated on their own and the impact on plasma membrane levels is measured or compounds are evaluated in combination with a co-corrector, i.e. a compound that rescues CFTR-ΔF508 to the plasma membrane but rescue can be enhanced by addition of compounds due to a complementary mode of action.
Activity of Compounds for their Intrinsic Corrector Capacity:
For this purpose doxycycline-inducible AF508-CFTR-HRP expressing CFBE4lo-cells (obtained from Gergely Lukacs, McGill University) were maintained in MEM (Gibco; 31095) supplemented with 10% fetal bovine serum (Hyclone; SV30160.03) under puromycin (3 μg/mL) and G418 selection (0.2 mg/mL). For compound testing, cells were seeded at 4000 cells/well in white 384-well plates (Greiner; 781080) in 50 μL medium containing 0.5 μg/mL doxycycline and incubated for 68 hours at 37° C., 5% CO2. On day four, 10 μL test compounds diluted in PBS were added to the plates at a final DMSO concentration of 0.1%. All compound plates contained negative controls (DMSO) and positive controls (3 μM corrector, 3-[(2R,4R)-4-({[1-(2,2-difluoro-1,3-benzodioxol-5-yl)cyclopropyl]carbonyl}amino)-7-methoxy-3,4-dihydro-2H-chromen-2-yl]benzoic acid). Cell plates were incubated at 33° C., 5% CO2 for 20 hours. On day five, the cells were washed five times with phosphate-buffered saline, and HRP activity was assayed by the addition of 50 μL/well of HRP substrate (SuperSignal™ West Pico Chemiluminescent Substrate, Thermo Scientific; 34080). After incubation for 15 minutes in the dark, chemiluminescence was measured using a plate reader (EnVision®, Perkin Elmer). Raw data were normalized to percentage activity values using the equation: 100×(Sample−Negative control)/(Positive control−Negative Control).

T1 sequence (P13569 with tags, fused parts or gaps DEL508-508): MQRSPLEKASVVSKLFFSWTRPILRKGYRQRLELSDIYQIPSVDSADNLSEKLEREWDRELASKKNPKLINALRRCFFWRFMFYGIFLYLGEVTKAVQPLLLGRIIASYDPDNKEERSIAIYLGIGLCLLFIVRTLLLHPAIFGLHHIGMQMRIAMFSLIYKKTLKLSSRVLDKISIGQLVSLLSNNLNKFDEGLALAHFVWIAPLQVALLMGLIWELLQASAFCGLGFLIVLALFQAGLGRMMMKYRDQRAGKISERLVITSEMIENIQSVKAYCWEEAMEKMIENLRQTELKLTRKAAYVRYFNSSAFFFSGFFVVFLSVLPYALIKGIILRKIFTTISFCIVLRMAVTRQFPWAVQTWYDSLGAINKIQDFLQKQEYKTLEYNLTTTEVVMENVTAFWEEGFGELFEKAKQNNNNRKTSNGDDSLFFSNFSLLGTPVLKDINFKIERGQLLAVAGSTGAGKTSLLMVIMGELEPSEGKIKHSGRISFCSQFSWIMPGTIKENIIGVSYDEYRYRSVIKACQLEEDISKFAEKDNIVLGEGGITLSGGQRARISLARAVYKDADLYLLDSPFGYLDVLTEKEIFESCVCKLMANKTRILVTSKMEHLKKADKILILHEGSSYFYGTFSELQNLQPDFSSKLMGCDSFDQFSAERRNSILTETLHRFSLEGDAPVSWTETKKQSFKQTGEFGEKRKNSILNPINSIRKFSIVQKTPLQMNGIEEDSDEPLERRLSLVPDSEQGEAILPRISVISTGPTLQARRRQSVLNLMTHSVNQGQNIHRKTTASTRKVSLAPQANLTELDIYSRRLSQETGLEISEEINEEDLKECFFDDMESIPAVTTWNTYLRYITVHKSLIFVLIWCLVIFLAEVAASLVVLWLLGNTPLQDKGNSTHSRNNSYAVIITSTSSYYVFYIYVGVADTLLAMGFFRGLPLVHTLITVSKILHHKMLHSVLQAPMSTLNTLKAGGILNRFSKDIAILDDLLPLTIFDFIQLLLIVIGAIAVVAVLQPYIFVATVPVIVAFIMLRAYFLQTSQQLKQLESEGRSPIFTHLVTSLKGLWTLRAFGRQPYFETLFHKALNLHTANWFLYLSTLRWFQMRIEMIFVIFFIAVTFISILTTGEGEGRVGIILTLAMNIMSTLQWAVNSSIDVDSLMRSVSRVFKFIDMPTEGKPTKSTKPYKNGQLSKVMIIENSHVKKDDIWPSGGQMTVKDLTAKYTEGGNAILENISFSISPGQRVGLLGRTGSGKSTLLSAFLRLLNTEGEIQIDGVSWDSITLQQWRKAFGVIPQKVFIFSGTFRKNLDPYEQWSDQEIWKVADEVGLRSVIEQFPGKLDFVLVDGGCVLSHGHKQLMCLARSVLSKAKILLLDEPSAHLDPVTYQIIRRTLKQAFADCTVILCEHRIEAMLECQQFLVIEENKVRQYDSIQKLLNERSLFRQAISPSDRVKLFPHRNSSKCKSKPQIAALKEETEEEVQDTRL

SMILES	% Activation [%]	pEC50
CC(=O)N1CCN(c2ccc(-c3cc(C(=O)O)nc4c3c(C)nn4-c3ccccc3)cc2)CC1 [compound 29, 4-[4-(4-acetylpiperazin-1-yl)phenyl]-3-methyl-1-phenyl-1H-pyrazolo[3,4-b]pyridine-6-carboxylic acid]	146.1	5.51
Cc1cc(C)cc(-n2nc(C)c3c(-c4ccc(N5CCOCC5)cc4)cc(C(=O)O)nc32)c1 [compound 30, 1-(3,5-dimethylphenyl)-3-methyl-4-[4-(morpholin-4-yl)phenyl]-1H-pyrazolo[3,4-b]pyridine-6-carboxylic acid]	119.1	5.92
Cc1nn(-c2ccc(OC(F)(F)F)cc2)c2nc(C(=O)O)cc(-c3ccc(N4CCOCC4)cc3)c12 [compound 31, 3-methyl-4-[4-(morpholin-4-yl)phenyl]-1-[4-(trifluoromethoxy)phenyl]-1H-pyrazolo[3,4-b]pyridine-6-carboxylic acid]	96.335	6.28
COc1cc(N2CCOCC2)ccc1-c1cc(C(=O)O)nc2c1c(C)nn2-c1ccccc1 [compound 33, 4-[2-methoxy-4-(morpholin-4-yl)phenyl]-3-methyl-1-phenyl-1H-pyrazolo[3,4-b]pyridine-6-carboxylic acid]	90.265	5.82
Cc1nn(-c2cccc(OC(F)(F)F)c2)c2nc(C(=O)O)cc(-c3ccc(N4CCOCC4)cc3)c12 [compound 35, 3-methyl-4-[4-(morpholin-4-yl)phenyl]-1-[3-(trifluoromethoxy)phenyl]-1H-pyrazolo[3,4-b]pyridine-6-carboxylic acid]	110.15	6.13
Cc1nn(-c2ccc(F)c(F)c2)c2nc(C(=O)O)cc(-c3ccc(N4CCOCC4)cc3)c12 [compound 37, 1-(3,4-difluorophenyl)-3-methyl-4-[4-(morpholin-4-yl)phenyl]-1H-pyrazolo[3,4-b]pyridine-6-carboxylic acid]	112.9	5.95
Cc1nn(-c2cccc(S(C)(=O)=O)c2)c2nc(C(=O)O)cc(-c3ccc(N4CCOCC4)cc3)c12 [compound 38, 1-[3-(methanesulfonyl)phenyl]-3-methyl-4-[4-(morpholin-4-yl)phenyl]-1H-pyrazolo[3,4-b]pyridine-6-carboxylic acid]	23.86	< 5.00
Cc1nn(C2CCN(C)CC2)c2nc(C(=O)O)cc(-c3ccc(N4CCOCC4)cc3)c12 [compound 39, 3-methyl-1-(1-methylpiperidin-4-yl)-4-[4-(morpholin-4-yl)phenyl]-1H-pyrazolo[3,4-b]pyridine-6-carboxylic acid]	−2.469	< 5.00
Cc1c(C(=O)O)nc2c(c(C)nn2-c2ccccc2)c1-c1ccc(N2CCOCC2)cc1 [compound 42, 3,5-dimethyl-4-[4-(morpholin-4-yl)phenyl]-1-phenyl-1H-pyrazolo[3,4-b]pyridine-6-carboxylic acid]	74.83	5.48
Cc1nn(-c2cc(Cl)cc(Cl)c2)c2nc(C(=O)O)cc(-c3ccc(N4CCOCC4)cc3)c12 [compound 44, 1-(3,5-dichlorophenyl)-3-methyl-4-[4-(morpholin-4-yl)phenyl]-1H-pyrazolo[3,4-b]pyridine-6-carboxylic acid]	117.2	5.66
Cc1nn(-c2cccc(S(N)(=O)=O)c2)c2nc(C(=O)O)cc(-c3ccc(N4CCOCC4)cc3)c12 [compound 45, 3-methyl-4-[4-(morpholin-4-yl)phenyl]-1-(3-sulfamoylphenyl)-1H-pyrazolo[3,4-b]pyridine-6-carboxylic acid]	5.851	< 5.00
Cc1nn(-c2cnn(C)c2)c2nc(C(=O)O)cc(-c3ccc(N4CCOCC4)cc3)c12 [compound 46, 3-methyl-1-(1-methyl-1H-pyrazol-4-yl)-4-[4-(morpholin-4-yl)phenyl]-1H-pyrazolo[3,4-b]pyridine-6-carboxylic acid]	15.23	< 5.00
C=C(C)c1nn(-c2ccccc2)c2nc(C(=O)O)cc(-c3ccc(N4CCOCC4)cc3)c12 [compound 48, 4-[4-(morpholin-4-yl)phenyl]-1-phenyl-3-(prop-1-en-2-yl)-1H-pyrazolo[3,4-b]pyridine-6-carboxylic acid]	163.7	6.00
CC(C)c1nn(-c2cccc(C#N)c2)c2nc(C(=O)O)cc(-c3ccc(N4CCOCC4)cc3)c12 [compound 49, 1-(3-cyanophenyl)-4-[4-(morpholin-4-yl)phenyl]-3-(propan-2-yl)-1H-pyrazolo[3,4-b]pyridine-6-carboxylic acid]	107	5.95
COc1cc(-n2nc(C)c3c(-c4ccc(N5CCOCC5)cc4)cc(C(=O)O)nc32)ccn1 [compound 51, 1-(2-methoxypyridin-4-yl)-3-methyl-4-[4-(morpholin-4-yl)phenyl]-1H-pyrazolo[3,4-b]pyridine-6-carboxylic acid]	41.22	5.93
COc1cc(F)cc(-n2nc(C)c3c(-c4ccc(N5CCOCC5)cc4)cc(C(=O)O)nc32)c1 [compound 52, 1-(3-fluoro-5-methoxyphenyl)-3-methyl-4-[4-(morpholin-4-yl)phenyl]-1H-pyrazolo[3,4-b]pyridine-6-carboxylic acid]	87.35	5.57
Cc1nn(-c2ccccc2)c2nc(C(=O)O)cc(-c3ccc(N4CCN(S(C)(=O)=O)CC4)cc3)c12 [compound 53, 4-{4-[4-(methanesulfonyl)piperazin-1-yl]phenyl}-3-methyl-1-phenyl-1H-pyrazolo[3,4-b]pyridine-6-carboxylic acid]	72.97	5.48
CNC(=O)c1nn(-c2ccccc2)c2nc(C(=O)O)cc(-c3ccc(N4CCOCC4)cc3)c12 [compound 55, 3-(methylcarbamoyl)-4-[4-(morpholin-4-yl)phenyl]-1-phenyl-1H-pyrazolo[3,4-b]pyridine-6-carboxylic acid]	0.088	< 5.00
CC(C)(CO)c1nn(-c2ccccc2)c2nc(C(=O)O)cc(-c3ccc(N4CCOCC4)cc3)c12 [compound 56, 3-(1-hydroxy-2-methylpropan-2-yl)-4-[4-(morpholin-4-yl)phenyl]-1-phenyl-1H-pyrazolo[3,4-b]pyridine-6-carboxylic acid]	53.1	5.48
Cc1nn(-c2ccnc(F)c2)c2nc(C(=O)O)cc(-c3ccc(N4CCOCC4)cc3)c12 [compound 57, 1-(2-fluoropyridin-4-yl)-3-methyl-4-[4-(morpholin-4-yl)phenyl]-1H-pyrazolo[3,4-b]pyridine-6-carboxylic acid]	68.57	5.48
Cc1nn(-c2cc[nH]c(=O)c2)c2nc(C(=O)O)cc(-c3ccc(N4CCOCC4)cc3)c12 [compound 58, 3-methyl-4-[4-(morpholin-4-yl)phenyl]-1-(2-oxo-1,2-dihydropyridin-4-yl)-1H-pyrazolo[3,4-b]pyridine-6-carboxylic acid]	4.754	< 5.00
Cc1nn(-c2cccc(C(N)=O)c2)c2nc(C(=O)O)cc(-c3ccc(N4CCOCC4)cc3)c12 [compound 59, 1-(3-carbamoylphenyl)-3-methyl-4-[4-(morpholin-4-yl)phenyl]-1H-pyrazolo[3,4-b]pyridine-6-carboxylic acid]	13.69	< 5.00

— patent US9796711B2, “Substituted pyrazolo[3,4-b]pyridin-6-carboxylic acids and method of use” (AbbVie S.àr.l., priority 2015, dated 2017)
